For test [1], the system named is MECP2-KO cortical organoids. The experiment in a line: Synapsin1+ puncta quantitation in cortical organoids. Format: cell-based, human. The settings on record: 1 μM for one month, vs untreated. The method, then:
Immunofluorescence of cells and cortical organoids. Immunofluorescence was performed as described in Chailangkam et al. Cells fixed in 4% PFA were PBS-washed and permeabilized/blocked (0.1% Triton X-100, 2% BSA). Cortical organoids fixed in 4% PFA were transferred to 30% sucrose, sunken, embedded in O.C.T. (Sakura, Tokyo, Japan), and cryostat-sectioned. Air-dried slides with organoid sections were permeabilized/blocked (0.1% Triton X-100, 3% FBS, PBS). […] Slides or coverslips were mounted with ProLong Gold anti-fade mountant (Life Technologies) and analyzed with a Z1 Axio Observer Apotome fluorescence microscope (Zeiss, Oberkochen, Germany).
Nefiracetam and PHA 543613 rescue network activity in MECP2-KO cortical organoids. The therapeutic efficacy of Nefiracetam and PHA 543613 was evaluated with cortical organoids, a complex, three-dimensional human neurodevelopmental model that closely recapitulates aspects of human fetal neurodevelopment. […]

Test [2] has as its system MECP2-mosaic (CTR/KO) neurospheres. Description: MEA analysis of neurospheres. The settings on record: 1 μM, after 5 weeks of treatment, vs CTR/KO untreated. Format: cell-based, human. The method, then:
Multi-electrode array (MEA) analysis. MEA analyses of neurons and cortical organoids were performed as described in Nageshappa et al. (Mol. Psychiatry 21:178-188 (2016)). Briefly, 3D neurosphere cultures of NPC derivation were plated on dual-chamber MEA; spontaneous spike activity was evaluated with the MED64 System (Panasonic). Glutamatergic (AP5, NBQX), GABAergic (Gabazine), and gap channel (Mefloquine) antagonism were used to check neuronal activity. After measurement, neurons were immunostained to check morphology and density. Recorded spikes were analyzed with the software Neuroexplorer (Nex Technologies, Madison, Ala., USA). For cortical organoids, 1-month organoids were plated on MEA plates and recordings were collected with a Maestro MEA system and AxIS Software Spontaneous Neural Configuration (Axion Biosystems, Atlanta, Ga., USA) using a customized script. The plate rested in the machine for three minutes followed by four minutes of recording. Axion Biosystems' Neural Metrics Tool classified electrodes with at least 5 spikes/min as active. Bursts were identified using an inter-spike interval (ISI) threshold requiring a 5-spike minimum and 100 ms maximum ISI. […] The synchrony index was calculated using a 20 ms cross-correlogram synchrony window was used to determine the synchrony index. […]

A further test has as its target GABAA receptor. To be noted: read-out: affinity for the GABAA receptor (IC50); cited from earlier work.
A further test relates to MECP2-KO neurons. The experiment in a line: Nuclei size in neurons. The format is cell-based, human. The settings on record: vs KO untreated.

We go through two molecules from patent US20230102192A1, “THERAPIES FOR THE TREATMENT OF DISEASES AND DISORDERS ASSOCIATED WITH ABNORMAL EXPRESSION OF A NEURAL-ASSOCIATED GENE” (The Regents of the University of California, priority 2020, published 2023).

`Cc1cccc(C)c1NC(=O)CN1CCCC1=O` [Nefiracetam, nefiracetam]: the “synaptic puncta (Synapsin1+)” value in test [1] is “increase”. Moreover, in test [2], the “MEA overall spike count / spike frequency” value is “increased”. On GABAA receptor, the IC50 (as a rule, the concentration that inhibits the measured activity by half) was 8.5 nM. Further, the “nuclei size in neurons” value with MECP2-KO neurons is reported as “did not rescue”.

With `O=C(N[C@H]1CN2CCC1CC2)c1cc2ccoc2cn1` [PHA 543613, N-[(3R)-1-azabicyclo[2.2.2]oct-3-yl]furo[2,3-c]pyridine-5-carboxamide], the “MEA overall spike count / spike frequency” value in test [2] is “increased”. For the same molecule, the “nuclei size in neurons” value with MECP2-KO neurons is on record as “did not rescue”.
